From patent publication US7786141B2 (Vertex Pharmaceuticals Incorporated, priority 2004, dated 2010)
Blank lines part the entries; values can stand above or below the molecule they belong to.

Columns and labels:
M1 muscarinic receptor = target: T1, M1 muscarinic receptor (Homo sapiens, UniProt P11229); assay: Functional mobilization of intracellular calcium (FLIPR) in M1-CHO cells; assay type: cell-based; conditions: Table 4; for Emax: 100% efficacy is the maximum response obtained with the Carbachol control; for M1 Activity: modulating M1 receptor
T1 construct: expressed in transfected cells; host or cells: CHO (M1-CHO)
T1 sequence (P11229 1-460): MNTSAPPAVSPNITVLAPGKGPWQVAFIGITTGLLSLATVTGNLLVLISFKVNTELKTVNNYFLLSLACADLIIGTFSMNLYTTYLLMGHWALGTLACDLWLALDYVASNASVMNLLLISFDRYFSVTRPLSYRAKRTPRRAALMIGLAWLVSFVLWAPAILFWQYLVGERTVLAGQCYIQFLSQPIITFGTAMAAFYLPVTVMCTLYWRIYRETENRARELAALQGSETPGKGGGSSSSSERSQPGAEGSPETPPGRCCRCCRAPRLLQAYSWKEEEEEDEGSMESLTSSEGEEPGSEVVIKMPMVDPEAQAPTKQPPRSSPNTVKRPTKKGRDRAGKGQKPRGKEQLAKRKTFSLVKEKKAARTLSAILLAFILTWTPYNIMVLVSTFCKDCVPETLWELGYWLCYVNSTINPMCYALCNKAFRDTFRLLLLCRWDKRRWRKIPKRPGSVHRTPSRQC
In short: (§1)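 FLIPR Ca2+ read, ex 488/em 540 nm, 60 s. Recombinant CHO lines (M1 or M4), dye-loaded Fluo-3 AM 60-90 min at 37° C, probenecid 1 mM, pH 7.4. Agonist: compound alone; inhibition: 15 min compound pre-incubation, then carbachol at EC80 for that subtype.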

M4 muscarinic receptor = target: T2, M4 muscarinic receptor (Homo sapiens, UniProt P08173); assay: Functional mobilization of intracellular calcium (FLIPR) in M4-CHO cells; assay type: cell-based; conditions: Table 4; for Emax: 100% efficacy is the maximum response obtained with the Carbachol control; for M4 Activity: modulating M4 receptor
T2 construct: expressed in transfected cells; host or cells: CHO (M4-CHO)
T2 sequence (P08173 1-479): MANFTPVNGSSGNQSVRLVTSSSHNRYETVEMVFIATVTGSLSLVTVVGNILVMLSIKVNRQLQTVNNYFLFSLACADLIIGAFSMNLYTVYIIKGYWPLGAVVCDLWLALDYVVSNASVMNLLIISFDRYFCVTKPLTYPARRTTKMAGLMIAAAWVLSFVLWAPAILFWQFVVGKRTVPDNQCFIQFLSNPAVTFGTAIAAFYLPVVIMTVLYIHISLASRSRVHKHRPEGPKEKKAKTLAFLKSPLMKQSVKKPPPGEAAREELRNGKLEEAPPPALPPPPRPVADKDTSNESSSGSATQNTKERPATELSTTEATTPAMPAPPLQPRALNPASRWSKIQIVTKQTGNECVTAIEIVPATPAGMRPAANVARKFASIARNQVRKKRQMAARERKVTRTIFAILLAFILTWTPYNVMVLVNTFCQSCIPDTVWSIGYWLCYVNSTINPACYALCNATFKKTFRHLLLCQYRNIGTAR
In short: as §1

SMILES: CC(C)C(=O)N1CCC(N2CCC3(CC2)CN(C(=O)N(C)C)c2ccc(F)cc23)CC1 [compound 665]
Emax (M1 muscarinic receptor): 25 to 100%
M1 Activity (M1 muscarinic receptor): x (activity was measured to be greater than 5.0 μM)
Emax (M4 muscarinic receptor): < 25%
M4 Activity (M4 muscarinic receptor): x (activity was measured to be greater than 5.0 μM)

SMILES: CC(=O)N[C@@H]1CCC2(CCN(C3CCCCCC3)CC2)c2ccccc21 [compound 666]
Emax (M1 muscarinic receptor): < 25%
M1 Activity (M1 muscarinic receptor): x (activity was measured to be greater than 5.0 μM)
Emax (M4 muscarinic receptor): 25 to 100%
M4 Activity (M4 muscarinic receptor): xxx (activity was measured to be less than 2.0 μM)

SMILES: Cc1ccc2c(c1)C1(CCN(C3CC4CCC3C4)CC1)CN2C(=O)NC(C)C (stereo not shown) [compound 667]
Emax (M1 muscarinic receptor): < 25%
M1 Activity (M1 muscarinic receptor): x (activity was measured to be greater than 5.0 μM)
Emax (M4 muscarinic receptor): 25 to 100%
M4 Activity (M4 muscarinic receptor): x (activity was measured to be greater than 5.0 μM)

SMILES: CS(=O)(=O)N[C@H]1CCC2(CCN([C@H]3CC4CC[C@H](C4)C3)CC2)c2ccccc21 [compound 668]
Emax (M1 muscarinic receptor): 25 to 100%
M1 Activity (M1 muscarinic receptor): xxx (activity was measured to be less than 2.0 μM)
Emax (M4 muscarinic receptor): 25 to 100%
M4 Activity (M4 muscarinic receptor): xxx (activity was measured to be less than 2.0 μM)

SMILES: CCOC(=O)N1C2CCC1CC(N1CCC3(CC[C@@H](NC(C)=O)c4ccccc43)CC1)C2 (stereo partly shown) [compound 669]
Emax (M1 muscarinic receptor): 25 to 100%
M1 Activity (M1 muscarinic receptor): xxx (activity was measured to be less than 2.0 μM)
Emax (M4 muscarinic receptor): 25 to 100%
M4 Activity (M4 muscarinic receptor): xxx (activity was measured to be less than 2.0 μM)

SMILES: CCCN1CC2(CCN(C[C@@H]3C[C@H]4C=C[C@H]3C4)CC2)c2cc(F)ccc21 [compound 670]
Emax (M1 muscarinic receptor): 25 to 100%
M1 Activity (M1 muscarinic receptor): x (activity was measured to be greater than 5.0 μM)
Emax (M4 muscarinic receptor): 25 to 100%
M4 Activity (M4 muscarinic receptor): xx (activity was measured to be between 2.0 μM and 5.0 μM)

SMILES: CC(=O)N[C@H]1CC2(CCN(CC(=O)N3CCCC3)CC2)c2ccccc21 [compound 671]
Emax (M1 muscarinic receptor): < 25%
M1 Activity (M1 muscarinic receptor): x (activity was measured to be greater than 5.0 μM)
Emax (M4 muscarinic receptor): < 25%
M4 Activity (M4 muscarinic receptor): x (activity was measured to be greater than 5.0 μM)

SMILES: CC#CCOC(=O)N1CCC(N2CCC3(CC2)CN(C(C)=O)c2ccccc23)CC1 [compound 672]
Emax (M1 muscarinic receptor): 25 to 100%
M1 Activity (M1 muscarinic receptor): xxx (activity was measured to be less than 2.0 μM)
Emax (M4 muscarinic receptor): 25 to 100%
M4 Activity (M4 muscarinic receptor): xxx (activity was measured to be less than 2.0 μM)

SMILES: CN(C)C(=O)NC1CCC2(CCN(CC3CCCCC3)CC2)c2ccccc21 (stereo not shown) [compound 673]
Emax (M1 muscarinic receptor): < 25%
M1 Activity (M1 muscarinic receptor): x (activity was measured to be greater than 5.0 μM)
Emax (M4 muscarinic receptor): 25 to 100%
M4 Activity (M4 muscarinic receptor): xx (activity was measured to be between 2.0 μM and 5.0 μM)

SMILES: COCC(=O)N1CCC(N2CCC3(CC2)CN(C(=O)N(C)C)c2ccc(F)cc23)CC1 [compound 674]
Emax (M1 muscarinic receptor): 25 to 100%
M1 Activity (M1 muscarinic receptor): x (activity was measured to be greater than 5.0 μM)
Emax (M4 muscarinic receptor): 25 to 100%
M4 Activity (M4 muscarinic receptor): x (activity was measured to be greater than 5.0 μM)

SMILES: CCC#CCOC(=O)N1CC[C@H](CN2CCC3(CC2)CN(C(=O)N(C)C)c2ccc(F)cc23)C1 [compound 675]
Emax (M1 muscarinic receptor): 25 to 100%
M1 Activity (M1 muscarinic receptor): xxx (activity was measured to be less than 2.0 μM)
Emax (M4 muscarinic receptor): 25 to 100%
M4 Activity (M4 muscarinic receptor): xxx (activity was measured to be less than 2.0 μM)

SMILES: CCOC(=O)N1CCC(N2CCC3(CC2)CN(C(C)=O)c2c(-c4ccncc4)cccc23)CC1 [compound 677]
Emax (M1 muscarinic receptor): 25 to 100%
M1 Activity (M1 muscarinic receptor): x (activity was measured to be greater than 5.0 μM)
Emax (M4 muscarinic receptor): < 25%
M4 Activity (M4 muscarinic receptor): x (activity was measured to be greater than 5.0 μM)

SMILES: CC(=O)N1CC2(CCN(C3CCN(c4cncc(-c5ccccc5C)n4)CC3)CC2)c2ccccc21 [compound 678]
Emax (M1 muscarinic receptor): 25 to 100%
M1 Activity (M1 muscarinic receptor): xxx (activity was measured to be less than 2.0 μM)
Emax (M4 muscarinic receptor): < 25%
M4 Activity (M4 muscarinic receptor): x (activity was measured to be greater than 5.0 μM)

SMILES: COC(=O)N1C2CCC1CC(N1CCC3(CC1)CN(C(C)=O)c1ccccc13)C2 (stereo not shown) [compound 679]
Emax (M1 muscarinic receptor): 25 to 100%
M1 Activity (M1 muscarinic receptor): xxx (activity was measured to be less than 2.0 μM)
Emax (M4 muscarinic receptor): 25 to 100%
M4 Activity (M4 muscarinic receptor): xxx (activity was measured to be less than 2.0 μM)

SMILES: COC(=O)N1CC[C@H](CN2CCC3(CC2)CN(C(C)=O)c2ccccc23)C1 [compound 680]
Emax (M1 muscarinic receptor): 25 to 100%
M1 Activity (M1 muscarinic receptor): xx (activity was measured to be between 2.0 μM and 5.0 μM)
Emax (M4 muscarinic receptor): 25 to 100%
M4 Activity (M4 muscarinic receptor): xxx (activity was measured to be less than 2.0 μM)

SMILES: COCCOC(=O)N1CC[C@H](CN2CCC3(CC2)CN(C(C)=O)c2ccccc23)C1 [compound 681]
Emax (M1 muscarinic receptor): 25 to 100%
M1 Activity (M1 muscarinic receptor): x (activity was measured to be greater than 5.0 μM)
Emax (M4 muscarinic receptor): < 25%
M4 Activity (M4 muscarinic receptor): x (activity was measured to be greater than 5.0 μM)

SMILES: CC(=O)N[C@@H]1CC2(CCN(C3CCC3)CC2)c2ccccc21 [compound 682]
Emax (M1 muscarinic receptor): < 25%
M1 Activity (M1 muscarinic receptor): x (activity was measured to be greater than 5.0 μM)
Emax (M4 muscarinic receptor): < 25%
M4 Activity (M4 muscarinic receptor): x (activity was measured to be greater than 5.0 μM)

SMILES: CCCCOC(=O)N1CCC(N2CCC3(CC2)CN(C(C)=O)c2ccccc23)CC1 [compound 683]
Emax (M1 muscarinic receptor): 25 to 100%
M1 Activity (M1 muscarinic receptor): xx (activity was measured to be between 2.0 μM and 5.0 μM)
Emax (M4 muscarinic receptor): < 25%
M4 Activity (M4 muscarinic receptor): x (activity was measured to be greater than 5.0 μM)

SMILES: CC(=O)N[C@H]1CC2(CCN(CC3CCN(C(=O)O[C@@H]4CCOC4)CC3)CC2)c2ccccc21 [compound 684]
Emax (M1 muscarinic receptor): < 25%
M1 Activity (M1 muscarinic receptor): x (activity was measured to be greater than 5.0 μM)
Emax (M4 muscarinic receptor): < 25%
M4 Activity (M4 muscarinic receptor): x (activity was measured to be greater than 5.0 μM)

SMILES: CN(C)C(=O)N1CC2(CCN(C3CCNCC3)CC2)c2cc(F)ccc21 [compound 685]
Emax (M1 muscarinic receptor): < 25%
M1 Activity (M1 muscarinic receptor): x (activity was measured to be greater than 5.0 μM)
Emax (M4 muscarinic receptor): 25 to 100%
M4 Activity (M4 muscarinic receptor): xxx (activity was measured to be less than 2.0 μM)

SMILES: CCOC(=O)N1C2CCC1CC(N1CCC3(CC1)CN(C(C)=O)c1c(C(F)(F)F)cccc13)C2 (stereo not shown) [compound 686]
Emax (M1 muscarinic receptor): < 25%
M1 Activity (M1 muscarinic receptor): x (activity was measured to be greater than 5.0 μM)
Emax (M4 muscarinic receptor): < 25%
M4 Activity (M4 muscarinic receptor): x (activity was measured to be greater than 5.0 μM)

SMILES: CN(C)C(=O)N[C@H]1CC2(CCN(CCC3CC4CC[C@@H]3C4)CC2)c2ccccc21 (stereo partly shown) [compound 687]
Emax (M1 muscarinic receptor): < 25%
M1 Activity (M1 muscarinic receptor): x (activity was measured to be greater than 5.0 μM)
Emax (M4 muscarinic receptor): < 25%
M4 Activity (M4 muscarinic receptor): x (activity was measured to be greater than 5.0 μM)

SMILES: CCOC(=O)N1CCC(N2CCC3(CC2)CN(C(=O)N2CCCCC2)c2ccccc23)CC1 [compound 688]
Emax (M1 muscarinic receptor): 25 to 100%
M1 Activity (M1 muscarinic receptor): xxx (activity was measured to be less than 2.0 μM)
Emax (M4 muscarinic receptor): 25 to 100%
M4 Activity (M4 muscarinic receptor): xxx (activity was measured to be less than 2.0 μM)

SMILES: CCOC(=O)N1CCC(N2CCC3(CC2)CN(C2CCC4(CC2)OCCO4)c2ccc(F)cc23)CC1 [compound 689]
Emax (M1 muscarinic receptor): > 100%
M1 Activity (M1 muscarinic receptor): xxx (activity was measured to be less than 2.0 μM)
Emax (M4 muscarinic receptor): 25 to 100%
M4 Activity (M4 muscarinic receptor): xxx (activity was measured to be less than 2.0 μM)

Emax (M1 muscarinic receptor): 25 to 100%
Emax (M4 muscarinic receptor): < 25%
SMILES: CC(=O)N[C@H]1CC2(CCN(C3CCCCC3)C2)c2ccc(F)cc21 (stereo partly shown) [compound 691]
M1 Activity (M1 muscarinic receptor): x (activity was measured to be greater than 5.0 μM)
M4 Activity (M4 muscarinic receptor): x (activity was measured to be greater than 5.0 μM)

Emax (M1 muscarinic receptor): 25 to 100%
Emax (M4 muscarinic receptor): 25 to 100%
SMILES: CC(=O)N[C@H]1CC2(CCN(CC3CC4C=CC3C4)C2)c2ccc(F)cc21 (stereo partly shown) [compound 692]
M1 Activity (M1 muscarinic receptor): xxx (activity was measured to be less than 2.0 μM)
M4 Activity (M4 muscarinic receptor): xxx (activity was measured to be less than 2.0 μM)

SMILES: CCC#CCOC(=O)N1CCC(N2CCC3(CC2)CN(C(=O)N(C)C)c2ccc(F)cc23)CC1 [compound 694]
Emax (M1 muscarinic receptor): 25 to 100%
M1 Activity (M1 muscarinic receptor): xxx (activity was measured to be less than 2.0 μM)
Emax (M4 muscarinic receptor): 25 to 100%
M4 Activity (M4 muscarinic receptor): xxx (activity was measured to be less than 2.0 μM)

SMILES: CCOC(=O)N1CC[C@H](CN2CCC3(CC2)CN(C(=O)N(C)C)c2ccc(F)cc23)C1 [compound 695]
Emax (M1 muscarinic receptor): 25 to 100%
M1 Activity (M1 muscarinic receptor): xxx (activity was measured to be less than 2.0 μM)
Emax (M4 muscarinic receptor): 25 to 100%
M4 Activity (M4 muscarinic receptor): xxx (activity was measured to be less than 2.0 μM)
